{"source": "patent US12329738B2", "about": "“Urolithin A and a composition containing same for external use in inflammations of various etiologies” (WARSZAWSKI UNIWERSYTET MEDYCZNY, priority 2018, dated 2025)", "key": {"[1]": {"tested_on": "skin cells", "settings": "in vitro; cited from earlier work"}, "[2]": {"tested_on": "IL-8, TNF-alpha and IL-1beta", "experiment": "IL-8, TNF-alpha and IL-1beta production by LPS-stimulated human neutrophils (ELISA)", "format": "cell-based", "settings": "40 μM (FIG. 12: 5, 10 and 40 μM); LPS 100 ng/mL, 24 h; derivatives compared with urolithin A", "method": "After isolation, neutrophils were suspended in RPMI 1640 medium supplemented with L-glutamine, HEPES and 10% FBS and incubated with urolithin A and its acylated derivatives (SG1, SG2, SG3, SG4, SG1_m, SG2_m, SG3_m) at a concentration of 40 μM for 1 hour before stimulation with LPS from Escherichia coli (100 ng/mL). After 24 hours, IL-8, TNF-alpha and IL-1beta levels were determined using the immunochemical ELISA method (BD biosciences). The effect on neutrophil viability was assessed using annexin V and propidium iodide staining.\nThe obtained results of experiments on in vitro models were analyzed using the Statistica 13 program (StatSoft, Inc., Tulsa, OK, USA) and presented as mean values±SEM. Statistical significance was set at P≤0.05. The results with established normal distribution in the D'Agostin and Pearson test were prepared using analysis of variance (ANOVA). Parametric post-hoc analysis was performed using Dunnett's test."}, "[3]": {"tested_on": "NHDF fibroblasts (human normal skin fibroblasts)", "settings": "comparative studies by the inventors", "method": "NHDF fibroblasts (human normal skin fibroblasts) were cultured in the DMEM medium supplemented with 10% FBS and a mixture of antibiotics—penicillin and streptomycin at 37° C., 5% CO2. […] After incubation with the compounds, the cells were washed twice with warm medium. The effect on cell viability was assessed using a standard MTT test."}, "[4]": {"settings": "animal model; oral and intravenous administration; cited from earlier work"}, "[5]": {"tested_on": "S100A8/A9 protein (calprotectin)", "experiment": "Extracellular S100A8/A9 level, LPS-stimulated human neutrophils (ELISA)", "format": "cell-based", "settings": "40, 10 and 1 μM; LPS 10 ng/mL; 30 min; concentration dependent", "method": "In order to comparatively study the biological activity of urolithins and their derivatives, these compounds were obtained by chemical synthesis, and then their activity against release of calprotectin by stimulated neutrophils was examined. Peripheral blood was collected from healthy donors (aged 20-35) at the Regional Blood Donation and Blood Treatment Center (Regionalne Centrum Krwiodawstwa i Krwiolecznictwa) in Warsaw. The study was conducted in accordance with the principles of the Declaration of Helsinki. […] Neutrophils were isolated using a standard method (Piwowarski et al., 2014a). Neutrophils were then suspended in HBSS. 50 μL of urolithin A, urolithin B or iso-urolitin A at the appropriate concentration (to achieve final concentrations of 40, 10 and 1 μM) and 10 μL of LPS solution (final concentration of 10 ng/mL) were added to 440 μl of cell suspension (3×10^5 cells/mL). Cells were incubated at 37° C. for 30 min, then centrifuged at 4° C., 400 rcf for 10 min. The experiment was carried out on blood samples taken from 4 different donors in duplicates. The effect of urolithins on the production of S100A8/A9 was determined using the immunochemical ELISA method (R&D Systems).\nThe obtained results of experiments on in vitro models were analyzed using the Statistica 13 program (StatSoft, Inc., Tulsa, OK, USA) and presented as mean values±SEM. […]"}, "[6]": {"tested_on": "Wistar rats (DNCB-induced atopic dermatitis)", "experiment": "Histologic assessment of ear skin in atopic dermatitis rat model", "format": "in vivo", "settings": "lesions treated with the composition of urolithin A; day 32; FIG. 8", "method": "Wistar rats aged 5-6 weeks (at the start of the experiment) kept under standard conditions with free access to feed and water were used for the tests. The animals were divided into 5 groups, 8 individuals in each group. To prepare 2,4-dinitrochlorobenzene (DNCB) composition inducing inflammation, DNCB was dissolved in 70% ethanol to a final concentration of 1.5% (w/v). Therapeutic composition was an ointment based on white petrolatum with 0.2% or 1.0% urolithin A added. The control ointment was white petrolatum without addition of urolithin A. The induction of chronic atopic dermatitis involved local 9-fold infiltration with 60 μl 1.5% 2,4-dinitrochlorobenzene (DNCB) on each (external and internal) surface of the right ear over 3 weeks (3 times a week). Negative control was the right ear of rats without induction inflammation. Treatment of atopic dermatitis with 0.2% or 1.0% urolithin composition and white petrolatum (control) or 1.0% hydrocortisone composition (positive control) was started eight days after sensitization—one day before the fourth application of DNCB. Ointments with appropriate for given group drug added were applied in a total volume of about 20 μl to each ear surface one day before and 6 hours after each DNCB application (for a period of 3 weeks). […]"}, "[7]": {"molecular_target": "T1, tyrosinase (Mus musculus, UniProt P11344)", "T1 sequence (P11344 19-533)": "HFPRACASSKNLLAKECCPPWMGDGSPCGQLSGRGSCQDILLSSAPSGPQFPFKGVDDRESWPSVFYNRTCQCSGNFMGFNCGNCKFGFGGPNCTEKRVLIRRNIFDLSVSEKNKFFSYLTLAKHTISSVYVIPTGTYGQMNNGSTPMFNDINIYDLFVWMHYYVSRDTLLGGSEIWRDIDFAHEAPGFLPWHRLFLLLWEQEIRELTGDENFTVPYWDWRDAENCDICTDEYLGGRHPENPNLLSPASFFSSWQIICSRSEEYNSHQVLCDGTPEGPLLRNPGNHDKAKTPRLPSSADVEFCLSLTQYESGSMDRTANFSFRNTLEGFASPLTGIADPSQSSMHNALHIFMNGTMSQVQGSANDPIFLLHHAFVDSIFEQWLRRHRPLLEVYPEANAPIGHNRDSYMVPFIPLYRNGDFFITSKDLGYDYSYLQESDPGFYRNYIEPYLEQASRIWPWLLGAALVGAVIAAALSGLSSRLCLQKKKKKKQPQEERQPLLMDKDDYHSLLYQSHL", "settings": "B16 melanoma cells; cited from earlier work"}}, "data": [{"compound": "O=c1oc2cc(O)ccc2c2ccc(O)cc12", "note": "[urolithin A]", "values": [{"measurement": "Melanin production", "setting": "[1]", "value": "reduced production of melanin"}, {"measurement": "Production of proinflammatory cytokines IL-8, TNF-alpha and IL-1beta by human neutrophils", "setting": "[2]", "value": "inhibition of the production of proinflammatory cytokines"}, {"measurement": "Antiproliferative activity on human skin fibroblast cells", "setting": "[3]", "value": "neither urolithin A, nor 8-acetyl-urolithin A, nor 3-acetyl-urolithin A showed antiproliferative activity"}, {"measurement": "Toxicity", "setting": "[4]", "value": "no toxicity"}, {"measurement": "Extracellular level of S100A8/A9 protein (calprotectin)", "setting": "[5]", "value": "significant decrease"}, {"measurement": "Histology of skin lesions", "setting": "[6]", "value": "Mild epidermal hyperplasia, infiltration of mononuclear cells (mast cells) and neutrophils. A slight infiltration of inflammatory cells around the blood vessels"}, {"measurement": "Tyrosinase activity (depigmentation)", "setting": "[7]", "value": "suppressing tyrosinase activity"}]}]}
